“Also recorded” adds a separate entry of the source. Where a name gives a salt, the structure may show the parent alone.
Key:
HL-60 cells = test: Phagocytosis of HL-60 cells by human macrophages; assay type: cell-based
Experimental: The objective of this study was to determine the effect of Calcium salt of compound of formula (I) and azacitidine mediated induction of phagocytosis of HL-60 cells by human macrophages. Different doses of Calcium salt of compound of formula (I) were tested to determine increase in phagocytosis of HL-60 cells (with or without azacitidine treatment) by macrophages isolated from healthy human volunteers.
Preparation of test compound: 20 mM stock concentration of Calcium salt of compound of formula (I) was prepared. The stock was further diluted to get intermediate and final concentrations. The final assay volume was 200 μL. Medium used for dilution is RPMI media. Four concentrations of Calcium salt of compound of formula (I) ranging from 10 μM to 0.3 μM were used in the assay.
Preparation of macrophage culture media: 5 mL of FBS and 10 μL of recombinant human M CSF (100 μg/mL stock) was added to 45 mL of RPMI to prepare macrophage culture media as and when required.
Preparation of HL-60 cell culture media: 10 mL of FBS was added to 40 mL of IMDM media to prepare HL-60 cell culture media.
Preparation of working stock of azacitidine: A 20 mM stock of azacitidine prepared by adding 172.1 μL of DMSO in 0.84 mg of azacitidine. 4.5 μL of 20 mM stock of azacitidine was added to 25.5 μL of DMSO to prepare 3 mM azacitidine working stock solution. This is 1000× of the desired final treatment concentration of 3 μM.
Preparation of working stock of Mouse IgG1 Kappa isotype control: Molarity of mouse IgG1 kappa isotype control antibody was calculated using online molarity calculator (https://www.graphpad.com/quickcalcs/Molarityform.cfm). Formula weight of antibody was 150 KDa. Molarity of isotype control antibody stock was 6.6667 μM. 3 μL of isotype control antibody stock solution was added to 197 μL RPMI media to prepare 100 nM of working stock solution. This is 10× stock of the required conc of isotype control. Preparation of working stock of anti-human CD47 antibody Molarity of anti-human CD47 antibody was calculated using online molarity calculator (https://www.graphpad.com/quickcalcs/Molarityform.cfm). Formula weight of anti-Human CD47 antibody was 150 KDa. Molarity of anti-human CD47 antibody stock was 6.6667 μM. This stock of anti-human CD47 antibody was further diluted to get intermediate and final concentrations as described below. 3 μL of anti-human CD47 antibody stock solution was added to 197 μL RPMI media to prepare 100 nM of working stock solution (10×).
Preparation of test system: 90 mL whole blood from healthy volunteer was collected in a Na-Heparin vacutainer and stored at room temperature until use. PBMCs isolated from blood were used for isolating monocytes and to differentiate them into macrophages for the phagocytosis assay.
90 mL blood was collected from healthy volunteer in NA-Heparin vacutainer. PBMCs were isolated and were resuspended in 50 mL serum free RPMI 1640 media. For isolation of monocytes, 10 mL of PBMC cell suspension was seeded in each T75 culture flask (total 5 flasks) and were cultured at 37 degree for 2 hours. Monocytes were attached to culture flask by adherence method. Media from these flasks was discarded and attached monocytes were washed once with prewarmed PBS. Monocytes were further cultured in 10 mL of macrophage culture media and were differentiated to macrophages for 10 days. Media from each flask was changed every alternate day or after every 2 days with fresh macrophage culture media.
A vial of HL-60 cell stock was taken from liquid nitrogen. Cells were thawed in a water bath at 37° C. till the last crystal is thawed. Cells were transferred to 50 mL of culture media in a falcon tube and centrifuged at 800 rpm for 8 minutes. Cells were further cultured in 20 mL of HL-60 cell culture media in T75 flasks at 37° C. at 5% CO2 for 24 hrs. After 24 hrs, the cells were centrifuged at 800 rpm for 5 mins. The cells were cultured in 25 mL of complete media at 37° C. and 5% CO2 for 2 more days. […]

[1] = Phase I/IIa open label dose-escalation safety study in subjects with relapsed advanced malignancies; assay type: in vivo, human; conditions: for Grade 3 or 4 toxicities / adverse events: correlated with the Test Product
Source text: Study objective: To evaluate the overall safety profile of the compound of formula (I) in human subjects with relapsed advanced malignancies.
The following table summarizes the (final) study protocol.

[2] = test system: Chemokines (MCP-3, MCP-1, MIP-1α & MIP-1β) and Cytokines (IL-12p40, IL-1A, IL-8, TNFα & IL-6); test: Pharmacodynamic biomarkers in the Phase I/IIa study; assay type: in vivo, human; conditions: all cohorts, as a result of treatment
Source text: Chemokines are known for their role in recruitment of macrophages to sites of infection, damage, or tumors for the purpose of phagocytosis and healing. An upregulation of chemokines followed by administration of the compound of formula (I) is indicative of the CD-47 inhibition mediated enhanced phagocytosis. Disruption of the IL-6-STAT3 axis is known to reduce the ability of tumor cells to escape phagocytosis (Jing Chen et al. Oncoimmunology 2019, VOL. 8, NO. 11, e1652540). A drop in IL-6 level is also indicative of macrophage activation.

[3] = Azacitidine 3 μM alone, HL-60 cells treated 72 hrs
[4] = 0.3 μM, DMSO treated HL-60 cells
[5] = 10 μM, DMSO treated HL-60 cells, normalized to 10 nM anti-human CD47
[6] = all subjects, across dose levels 25-400 mg BID oral

Question: Which results are given for `Nc1ncn([C@@H]2O[C@H](CO)[C@@H](O)[C@H]2O)c(=O)n1` [Azacitidine, 4-Amino-1-β-D-ribofuranosyl-s-triazin-2(1H)-one]?
Answer: increase in phagocytosis of HL-60 cells (HL-60 cells; 3 μM azacitidine treatment of HL-60 cells alone): 71.26%; % Normalized phagocytosis Replicate 1 (HL-60 cells; [3]): 76.25%; % Normalized phagocytosis Replicate 2 (HL-60 cells; [3]): 66.28%

Question: What does the source list for `N=C(N)NCCC[C@H](NC(=O)N1CCCC1C(=O)O)c1nc([C@@H](N)CCC(=O)O)no1` (stereo partly shown) [Calcium salt of compound of formula (I)]?
Answer: % Normalized phagocytosis Replicate 1 (HL-60 cells; [4]): −1.92%; % Normalized phagocytosis Replicate 2 (HL-60 cells; [4]): −10.34%; % Normalized phagocytosis Replicate 1 (HL-60 cells; 1 μM, DMSO treated HL-60 cells): 19.54%; % Normalized phagocytosis Replicate 2 (HL-60 cells; 1 μM, DMSO treated HL-60 cells): 4.98%; % Normalized phagocytosis Replicate 1 (HL-60 cells; 3 μM, DMSO treated HL-60 cells): −10.34%; % Normalized phagocytosis Replicate 2 (HL-60 cells; 3 μM, DMSO treated HL-60 cells): −14.94%; increase in phagocytosis of HL-60 cells (HL-60 cells; 10 μM alone): 54.79%; % Normalized phagocytosis Replicate 1 (HL-60 cells; [5]): 62.35%; % Normalized phagocytosis Replicate 2 (HL-60 cells; [5]): 47.13%; Grade 3 or 4 toxicities / adverse events ([1]; all cohorts): No Grade 3 or 4 toxicities; causality assessment of the serious adverse events ([1]; by principal investigators and study sponsor): Not Related; serious adverse events reported ([1]; one in cohort 2 (50 mg BID), one in cohort 3 (100 mg BID)): Two serious adverse events were reported

Question: Which results are given for `N=C(N)NCCC[C@H](NC(=O)N1CCC[C@@H]1C(=O)O)c1nc([C@@H](N)CCC(=O)O)no1` [Compound of formula (I)]?
Answer: severity of reported non-serious adverse events ([1]; all cohorts, NCI CTCAE v 5.0): mild to moderate; Grade 3 or 4 toxicities / adverse events ([1]; all cohorts): no grade 3 or grade 4 adverse events; Grade 3 or 4 toxicities / adverse events ([1]; all cohorts, listed as compound of formula (I)): no grade 3 or grade 4 adverse events; DLT (Dose Limiting Toxicity) [1, 6]: without any DLT; hemolytic anemia [1, 6]: No hemolytic anemia was reported in any subject; also recorded: no hemolytic anemia in any of the tested subjects; tolerability of treatment ([1]; all subjects, across dose levels 25-400 mg BID oral, up to 4 cycles of 28 days): well tolerated; hemolytic anemia ([1]; all subjects, across dose levels 25-400 mg BID oral, listed as compound of formula (I)): no hemolytic anemia in any of the tested subjects; safe and tolerable total daily dose ([1]; oral, total daily dose): ≤ 800 mg; safe and tolerable dose ([1]; per oral BID): ≤ 400 mg; Serious Adverse Reactions (SAR's) or Suspected Unexpected Serious Adverse Reactions (SUSAR's) ([1]; reporting period): No Serious Adverse Reactions (SAR's) or Suspected Unexpected Serious Adverse Reactions (SUSAR's) were reported; dose reductions due to treatment-related AEs ([1]; reporting period): no dose reductions; IL12p40, TNFα, MCP-1, MIP-1α, MIP-1β and MCP-3 levels [2]: a trend towards upregulation; IL-6 and IL-1α levels [2]: a trend towards downregulation

From patent US20250339404A1, “COMBINATION THERAPY USING A CD47-SIRP alpha BLOCKING AGENT AND AZACITIDINE” (Aurigene Oncology Limited, priority 2024, published 2025)
